Measured values: paper PMC5824708 (EJNMMI Radiopharmacy and Chemistry, 2018)

Legend:
[1] = tested on: CHL-GLP-1 tumor-bearing mouse; parameters: species or system mice; conditions: in vivo
Method: Animal studies complied with Swiss laws on animal protection and husbandry and were approved by the Veterinary office of the Canton Zurich. After an acclimatization period, tumor xenografts were produced in 6-week old female CD1 nu/nu mice by subcutaneous injection in both shoulder regions of CHL-GLP-1 receptor positive cells (8 × 10^6 cells/mouse in PBS (100 μL, pH 7.4)) under 2%–3% isoflurane anaesthesia. Ex vivo biodistribution experiments were conducted three weeks after the inoculation. PET imaging experiments were performed five weeks after the inoculation. Two tumor bearing mice were injected with ^18F-2 (13.0 MBq in 80 and 100 μL PBS containing ≤ 5% ethanol, 1.3 and 1.9 nmol) via lateral tail vein. Anaesthesia was induced with 5% isoflurane (Abbott) in O2/air 5 min before PET/CT acquisition. Depth of anaesthesia and temperature were controlled as described by Honer et al. (Honer et al. [2004]). PET/CT scans were performed under 2–3% isoflurane anaesthesia with a GE VISTA eXplore PET/CT tomograph. […] Standardized uptake values (SUV) were calculated as a ratio of tissue radioactivity concentration (kBq/cm^3) and injected activity dose per gram body weight (kBq/g) at the scan start. Percentage injected dose per gram of tissue (%ID/g) was calculated using SUV values: SUV / body weight [g] × 100% = %ID/g.

[2] = tested on: nude mice bearing CHL-GLP-1 receptor positive tumor xenografts; conditions: mouse, in vivo
Method: Animal studies complied with Swiss laws on animal protection and husbandry and were approved by the Veterinary office of the Canton Zurich. After an acclimatization period, tumor xenografts were produced in 6-week old female CD1 nu/nu mice by subcutaneous injection in both shoulder regions of CHL-GLP-1 receptor positive cells (8 × 10^6 cells/mouse in PBS (100 μL, pH 7.4)) under 2%–3% isoflurane anaesthesia. Ex vivo biodistribution experiments were conducted three weeks after the inoculation. PET imaging experiments were performed five weeks after the inoculation.
Tumor-bearing mice (n = 12) were injected intravenously with ^18F-2 (200 kBq in 100 μL PBS, 1.3 pmol, 5.9 ng). The animals were sacrificed at 30 min, 1 h and 2 h post injection (n = 4 for each time point). To determine specific binding an additional group of tumor-bearing mice (n = 4) received nonradioactive precursor 1 (100 μg in 100 μL PBS, 22 nmol) co-injected with ^18F-2 (266 kBq in 100 μL PBS, 1.7 pmol, 7.8 ng) and were sacrificed 1 h post injection. Organs and tissues of interest were collected and weighed, and the amount of radioactivity was determined in a γ-counter (1480 Wizard, PerkinElmer) to calculate percentage uptake (% injected dose per gram of tissue). Statistical significance was calculated using Student t-test (two populations, unpaired). P values of less than 0.05 were considered statistically significant.

[3] = tested on: dipeptidyl peptidase IV (DPP4); conditions: degradation by DPP4; ref Pauly et al. [1999]; cited from earlier work
Excerpt: The glucagon-like peptide type 1 receptor (GLP-1R) is overexpressed in virtually all benign insulinoma with high incidence and density and is considered a valuable target for the efficient visualisation by radiotracers (Reubi and Waser [2003]; Wild et al. [2011]; Wild et al. [2008]; Korner et al. [2012]). The natural ligand released from ileal L-cells, glucagon-like peptide 1 (GLP-1) stimulates the insulin secretion in β-cells by binding to the GLP-1R.

Tumor to background ratio [1]	tumor to blood ratio [2]	Substance	metabolic half-life [3]
~ 3	4 ± 2	His-Gly-Glu-Gly-Thr-Phe-Thr-Ser-Asp-Leu-Ser-Lys-Gln-Nle-Glu-Glu-Glu-Ala-Val-Arg-Leu-Phe-Ile-Glu-Trp-Leu-Lys-Asn-Gly-Gly-Pro-Ser-Ser-Pro-Ala-Pro-Pro-Pro-Ser-Lys-(N ^6 –2-(4-(di-tert-butylfluorosilyl)phenyl)acetyl)-NH 2 [^18F-2]	
		GLP-1: natural ligand of GLP-1R released from ileal L-cells	less than 2 min
